Test results as given in the Deep4Chem optical property database.
Each block holds one compound with its values, some of them ahead of it.

Experiment: solvent given as SMILES

Compound: CCn1c2ccccc2c2cc(-c3cc(-c4ccc5c(c4)c4ccccc4n5CC)nc(N4CCCCC4)n3)ccc21
absorption maximum (in C1CCOC1): 367 nm
absorption maximum (in CCOC(C)=O): 368 nm
absorption maximum (in CN(C)C=O): 370 nm
absorption maximum (in Cc1ccccc1): 369 nm
absorption maximum (in ClCCl): 371 nm

absorption maximum (in C1CCOC1): 565 nm
Compound: CC1=CS[C@]2(C)C1=C1C(=C3C(C)=C(c4ccc(-c5nc(-c6ccccc6)c(-c6ccccc6)[nH]5)cc4)S[C@]32C)C(F)(F)C(F)(F)C1(F)F

Compound: CCC1=C(C)C2=C(c3ccc(-c4c5ccccc5c(-c5ccccc5)c5ccccc45)cc3)c3c(C)c(CC)c(C)n3[B-](F)(F)[N+]2=C1C
absorption maximum (in CC#N): 523 nm
absorption maximum (in CCCCCC): 526 nm
absorption maximum (in CCO): 525 nm
absorption maximum (in CN(C)C=O): 526 nm
absorption maximum (in Cc1ccccc1): 529 nm
absorption maximum (in ClCCl): 527 nm

absorption maximum (in ClCCl): 654 nm
Compound: CC(C)[Si](C#Cc1c2cc3ccccc3cc2c(C#Cc2ccc(Br)cc2)c2cc3ccccc3cc12)(C(C)C)C(C)C

Compound: N#Cc1c(-n2c3ccccc3c3ccccc32)c(-n2c3ccccc3c3ccccc32)c(-n2c3ccccc3c3ccccc32)c(-n2c3ccccc3c3ccccc32)c1-n1c2ccccc2c2ccccc21
absorption maximum (in Cc1ccccc1): 402.99 nm

Compound: COc1cc(N(c2ccccc2)c2ccccc2)ccc1C=C(C#N)C#N
absorption maximum (in C1COCCO1): 436 nm
absorption maximum (in CC#N): 440 nm
absorption maximum (in CC(C)=O): 440 nm
absorption maximum (in CCOC(C)=O): 439 nm
absorption maximum (in CN(C)C=O): 445 nm
absorption maximum (in CO): 442 nm
absorption maximum (in Cc1ccccc1): 443 nm
absorption maximum (in ClC(Cl)Cl): 449 nm
absorption maximum (in ClCCl): 446 nm

absorption maximum (in C1CCCCC1): 374 nm
absorption maximum (in CC#N): 364 nm
absorption maximum (in CO): 354 nm
absorption maximum (in ClCCl): 367 nm
absorption maximum (in O): 338 nm
Compound: Cc1nc(-c2ccccc2)c2ccccn12

absorption maximum (in C1CCOC1): 695 nm
absorption maximum (in CS(C)=O): 712 nm
absorption maximum (in ClCCl): 690 nm
Compound: COc1cc(OC)cc(C2=C3C(C)=C(I)C(/C=C/c4c[nH]c5ccc([N+](=O)[O-])cc45)=[N+]3[B-](F)(F)n3c(/C=C/c4c[nH]c5ccc([N+](=O)[O-])cc45)c(I)c(C)c32)c1

Compound: O=C(N/N=C/c1ccccc1O)c1cccc2ccccc12
absorption maximum (in C1CCOC1): 334 nm
absorption maximum (in CC#N): 332 nm
absorption maximum (in CC(C)=O): 343 nm
absorption maximum (in CCO): 400 nm
absorption maximum (in CN(C)C=O): 395 nm
absorption maximum (in CS(C)=O): 329 nm
absorption maximum (in ClCCl): 328 nm

absorption maximum (in CCCCCC): 621 nm
absorption maximum (in CCCCCCCCO): 625 nm
absorption maximum (in CCOC(C)=O): 620 nm
absorption maximum (in CN(C)C=O): 626 nm
absorption maximum (in ClCCl): 618 nm
Compound: CC1=CC(C)=[N+]2C1=Cc1c3ccccc3c(C#Cc3cccs3)n1[B-]2(F)F

absorption maximum (in CCCCCC): 177 nm
Compound: CO

absorption maximum (in ClCCl): 538 nm
Compound: Cc1cc(C)c(C2=C3C=C(/C=C/C(=O)OC(C)(C)C)C=[N+]3[B-](F)(F)n3cccc32)c(C)c1

absorption maximum (in CS(C)=O): 399 nm
Compound: O=c1c2cc(S(=O)(=O)Cl)ccc2[nH]c2ccc(S(=O)(=O)Cl)cc12

absorption maximum (in C1CCCCC1): 570.5 nm
absorption maximum (in CCOC(C)=O): 575 nm
Compound: CC1=[N+]2C(=C(Oc3cc(C)c4c(c3)CC[C@@](C)(CCC[C@H](C)CCC[C@H](C)CCCC(C)C)O4)c3ccc(C)n3[B-]2(F)F)C=C1c1cc2n(c1)[B-](F)(F)[N+]1=CC=CC1=C2c1c(C)cc(C)cc1C

absorption maximum (in CC#N): 392 nm
absorption maximum (in ClCCl): 394 nm
Compound: COC(=O)c1cc(=O)n(C)c2cc(-c3ccccc3)sc12

absorption maximum (in CC#N): 546 nm
absorption maximum (in ClCCl): 549 nm
Compound: CCN(CC)c1ccc(/N=N/c2nc3ccc([N+](=O)[O-])cc3s2)cc1

absorption maximum (in ClC(Cl)Cl): 330 nm
Compound: O=c1oc2ccccc2cc1-c1cccc(-c2cc3ccccc3oc2=O)c1

absorption maximum (in ClC(Cl)Cl): 376 nm
Compound: CC(C)(C)c1ccc(-c2ccc(-c3c4c(nc5ccccc35)-c3cc5c(cc3CC4)-c3nc4ccccc4c(-c4ccc(-c6ccc(C(C)(C)C)cc6)cc4)c3CC5)cc2)cc1

absorption maximum (in C1COCCO1): 442 nm
Compound: COC(=O)c1ccc(/C=C2\C=C(c3ccc([N+](=O)[O-])cc3)N(CC(C)C)C2=O)cc1

absorption maximum (in ClCCl): 625 nm
Compound: c1ccc2c(c1)c1ccc3cccc4c3c1c2c1c2cccc3ccc5c6ccccc6c(c5c32)c41

absorption maximum (in ClCCl): 607 nm
Compound: CC(C)c1cccc(C(C)C)c1N1C(=O)c2ccc3c4c(-c5ccc(C(=O)O)cc5)c5ccc6c7c(cc8c9cc(C(=O)O)ccc9c(c9ccc(c2c39)C1=O)c4c8c57)C(=O)N(c1c(C(C)C)cccc1C(C)C)C6=O

absorption maximum (in ClCCl): 365 nm
Compound: NC1=N/C(=N\c2ccccn2)c2cccc3cccc1c23

absorption maximum (in CCCCCC): 392 nm
Compound: Cc1cc(C)c(B(c2c(C)cc(C)cc2C)c2cc3cccc4c(B(c5c(C)cc(C)cc5C)c5c(C)cc(C)cc5C)cc5cccc2c5c34)c(C)c1

absorption maximum (in CC(=O)O): 556 nm
absorption maximum (in CN(C)C=O): 550 nm
absorption maximum (in CS(C)=O): 553 nm
Compound: CCN(CC)c1cc(NC(C)=O)c(/N=N/c2cc3c(=O)[nH][nH]c(=O)c3cc2[N+](=O)[O-])cc1OC

absorption maximum (in O): 651 nm
Compound: COc1ccc(OC)c(C2=C3C=CC(=[N+](C)C)C=C3[Si](C)(C)c3cc(N(C)C)ccc32)c1

absorption maximum (in CC#N): 506 nm
absorption maximum (in ClCCl): 506 nm
Compound: COc1ccc2nc(/N=N/c3ccc(N(C)C)cc3)sc2c1

absorption maximum (in C1CCOC1): 498 nm
Compound: FC(F)(F)C(F)(F)C(F)(F)C1=NC2=C(Oc3ccccc3)C=C3c4cc(Oc5ccccc5)c5nc(C(F)(F)C(F)(F)C(F)(F)F)nc6c(Oc7ccccc7)cc(c4c56)=C4C=C(Oc5ccccc5)C(=N1)C2C34 (stereo not given)

absorption maximum (in CS(C)=O): 552 nm
Compound: CCN1/C(=C/C=C/C2=[N+](C)c3ccccc3C2(C)C)C(C)(C)c2ccccc21

Compound: FC(F)(F)c1ccc(-c2nnc(-c3cc(-c4nnc(-c5ccc(C(F)(F)F)cc5)o4)c(-n4c5ccccc5c5ccccc54)cc3-n3c4ccccc4c4ccccc43)o2)cc1
absorption maximum (in Cc1ccccc1): 376 nm

absorption maximum (in CC#N): 327 nm
Compound: C[C@@]12SC(Cl)=CC1=c1nc(-c3ccc(Cl)cc3)[nH]c1=C1C=C(Cl)S[C@]12C

absorption maximum (in C1CCOC1): 410 nm
absorption maximum (in CC#N): 416 nm
absorption maximum (in CCO): 416 nm
absorption maximum (in CCOC(C)=O): 408 nm
absorption maximum (in CN(C)C=O): 423 nm
absorption maximum (in ClCCl): 417 nm
absorption maximum (in O): 434 nm
absorption maximum (in c1ccccc1): 409 nm
Compound: CCCCn1c2ccc(/C=C(\C#N)c3ccc([N+](=O)[O-])cc3)cc2c2cc(Cn3c(-c4ccc5c(c4)c4ccccc4n5CCCC)nc4ccccc43)ccc21

absorption maximum (in ClCCl): 326 nm
Compound: O=C1c2cccc3cc(C#CC#Cc4cc5c6c(cccc6c4)C(=O)N(c4ccccc4)C5=O)cc(c23)C(=O)N1c1ccccc1

absorption maximum (in CCCCCC): 199 nm
Compound: CCCN(CCC)CCC

absorption maximum (in ClC(Cl)Cl): 608 nm
Compound: CC1(C)c2ccccc2-c2ccc(N3c4ccc(-c5ccc(/C=C6\C(=O)c7ccc(C(=O)O)cc7C6=O)s5)cc4C4CCCC43)cc21 (stereo not given)

absorption maximum (in CS(C)=O): 556 nm
Compound: C[N+]1=C(/C=C/C=C2/N(CCC[N+](C)(C)C)c3ccc(S(=O)(=O)[O-])cc3C2(C)C)C(C)(C)c2ccccc21

absorption maximum (in C1COCCO1): 372 nm
absorption maximum (in CC#N): 376 nm
absorption maximum (in CCCCO): 372 nm
absorption maximum (in CCO): 363 nm
absorption maximum (in CO): 364 nm
absorption maximum (in O): 376 nm
Compound: O=C(O)c1cc2c(ccc3ccccc32)oc1=O

Compound: O=[N+]([O-])c1ccc(NCCN(Cc2c3ccccc3cc3ccccc23)c2ccc([N+](=O)[O-])cc2[N+](=O)[O-])c([N+](=O)[O-])c1
absorption maximum (in C1CCCCC1): 355 nm
absorption maximum (in C1CCOC1): 372 nm
absorption maximum (in CC#N): 371 nm
absorption maximum (in CC(C)=O): 371 nm
absorption maximum (in CCO): 368 nm
absorption maximum (in CN(C)C=O): 267 nm
absorption maximum (in CO): 369 nm
absorption maximum (in ClC(Cl)Cl): 355 nm
